Columns and labels:
SARS-CoV-2 [1] = assay: Inhibition of SARS-CoV-2 pseudoparticle entry in human lung Airway Chip at reported drug Cmax, assessed by qRT-PCR after 48 hrs; format: functional; details: Severe acute respiratory syndrome coronavirus 2, Lung epithelium
SARS-CoV-2 [2] = assay: Inhibition of SARS-CoV-2 pseudoparticle entry in Huh-7 cells, assessed by luciferase assay after 72 hrs; format: functional, Homo sapiens; details: Severe acute respiratory syndrome coronavirus 2, Huh-7, 72 h; for inhibition at 1 µM: CONC 1 uM; for inhibition at 5 µM: CONC 5 uM
[3] = Assessment of cytotoxicity in Huh-7 cells, assessed as % inhibition of cell viability by Celltiter-Glo assay after 48 hrs; format: toxicity, cell-based; details: human, read-out: Inhibition; for cytotoxicity at 48 h, 1 µM: conc 1 uM; for cytotoxicity at 48 h, 5 µM: conc 5 uM

Compound | inhibition at 0.81 µM (SARS-CoV-2 [1]; CONC 0.81 uM) [%] | inhibition at 1 µM (SARS-CoV-2 [2]) [%] | inhibition at 5 µM (SARS-CoV-2 [2]) [%] | inhibition at 20.04 µM (SARS-CoV-2 [1]; CONC 20.04 uM) [%] | cytotoxicity at 48 h, 1 µM [3] [%] | cytotoxicity at 48 h, 5 µM [3] [%] | inhibition at 1.24 µM (SARS-CoV-2 [1]; CONC 1.24 uM) [%] | inhibition at 1.91 µM (SARS-CoV-2 [1]; CONC 1.91 uM) [%] | inhibition at 0.83 µM (SARS-CoV-2 [1]; CONC 0.83 uM) [%] | inhibition at 2.98 µM (SARS-CoV-2 [1]; CONC 2.98 uM) [%] | inhibition at 3.89 µM (SARS-CoV-2 [1]; CONC 3.89 uM) [%]
COc1ccc(CCN(C)CCCC(C#N)(c2ccc(OC)c(OC)c2)C(C)C)cc1OC (stereo not drawn) | 10 | 15 | 50 | – | – | – | – | – | – | – | –
CCCCc1oc2ccccc2c1C(=O)c1cc(I)c(OCCN(CC)CC)c(I)c1 [AMIODARONE] | – | 55 | 70 | 20 | 1 | 2 | – | – | – | – | –
CCN(CC)Cc1cc(Nc2ccnc3cc(Cl)ccc23)ccc1O [AMODIAQUINE] | – | 70 | 90 | – | 1 | -5 | 60 | – | – | – | –
CCN(CC)CCCC(C)Nc1ccnc2cc(Cl)ccc12 (stereo not drawn) [CHLOROQUINE] | – | 50 | 85 | – | 2 | 3 | – | 10 | – | – | –
CCN(CC)CCOc1ccc(C(=C(Cl)c2ccccc2)c2ccccc2)cc1 [CLOMIPHENE] | – | 60 | 80 | – | 2 | 12 | – | – | 30 | – | –
CN(C)CCOc1ccc(/C(=C(/CCCl)c2ccccc2)c2ccccc2)cc1 [TOREMIFENE] | – | 30 | 65 | – | 1 | 10 | – | – | – | 50 | –
CCOC(=O)c1c(CSc2ccccc2)n(C)c2cc(Br)c(O)c(CN(C)C)c12 [UMIFENOVIR] | – | 5 | 75 | – | 1 | 10 | – | – | – | – | 20
